Test results published in ChEMBL document CHEMBL6109130, “PaAP-Activatable NIR Probe for Diagnosing, Imaging, and Discovering Small-Molecule Therapeutics against Implant-Associated Biofilm Infections” (J Med Chem, 2025).
Blank lines part the entries; values can stand above or below the compound they belong to. Calls of active or inactive are those of the source. The rule behind the calls is not given here.

What was measured:
[1] = Cytotoxicity against human A-375 cells assessed as cell viability at 25 uM measured after 24 hrs by CCK-8 assay relative to control; type: toxicity, cell-based; settings: read-out: Activity
[2] = Cytotoxicity against human HepG2 cells assessed as cell viability at 25 uM measured after 24 hrs by CCK-8 assay relative to control; type: toxicity, cell-based; settings: read-out: Activity
[3] = Cytotoxicity against human HT-1080 cells assessed as cell viability at 25 uM measured after 24 hrs by CCK-8 assay relative to control; type: toxicity, cell-based; settings: read-out: Activity
[4] = Cytotoxicity against mouse BV-2 cells assessed as cell viability at 25 uM measured after 24 hrs by CCK-8 assay relative to control; type: toxicity, cell-based; settings: read-out: Activity
[5] = tested on: Pseudomonas aeruginosa; test: Antimicrobial activity against Pseudomonas aeruginosa ATCC27853 assessed as viability at 50 uM; type: functional, organism-based
[6] = target: T1, Aminopeptidase (Pseudomonas aeruginosa) (UniProt Q9HZQ8); test: Inhibition of Pseudomonas aeruginosa aminopeptidase (PaAP) assessed as decrease in fluorescent intensity using fluorescent probe Hcy-NEO-Leu at 1 mM measured after 3 hrs
T1 sequence (whole entry): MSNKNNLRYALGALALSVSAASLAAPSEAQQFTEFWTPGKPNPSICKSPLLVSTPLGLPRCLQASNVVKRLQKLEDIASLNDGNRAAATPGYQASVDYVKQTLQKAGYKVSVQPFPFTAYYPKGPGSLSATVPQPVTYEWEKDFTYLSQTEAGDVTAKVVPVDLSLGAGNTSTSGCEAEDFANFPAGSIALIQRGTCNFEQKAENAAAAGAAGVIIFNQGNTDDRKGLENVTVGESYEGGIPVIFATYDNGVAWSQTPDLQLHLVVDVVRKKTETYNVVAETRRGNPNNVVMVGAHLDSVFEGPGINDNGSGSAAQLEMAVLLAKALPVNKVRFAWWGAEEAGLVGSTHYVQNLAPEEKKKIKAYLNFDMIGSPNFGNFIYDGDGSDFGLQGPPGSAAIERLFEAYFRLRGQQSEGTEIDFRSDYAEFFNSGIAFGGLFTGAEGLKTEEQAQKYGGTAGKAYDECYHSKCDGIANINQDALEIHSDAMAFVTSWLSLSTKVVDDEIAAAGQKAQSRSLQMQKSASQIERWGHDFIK

[7] = target: T2, Aminopeptidase (Pseudomonas aeruginosa, UniProt Q9HZQ8); test: Inhibition of Pseudomonas aeruginosa aminopeptidase (PaAP) assessed as decrease in fluorescent intensity using fluorescent probe Hcy-NEO-Leu measured after 3 hrs
T2 sequence (Q9HZQ8 whole entry): T1 sequence (whole entry)

[8] = tested on: Enterococcus faecium; test: Antimicrobial activity against Enterococcus faecium ATCC29212 assessed as viability at 0.39 to 100 uM; type: functional, organism-based; settings: dose 0.39-100 µM
[9] = tested on: Staphylococcus aureus; test: Antimicrobial activity against Staphylococcus aureus ATCC25923 assessed as viability at 0.39 to 100 uM; type: functional, organism-based; settings: dose 0.39-100 µM
[10] = tested on: Klebsiella pneumoniae; test: Antimicrobial activity against Klebsiella pneumonia ATCC 700603 assessed as viability at 0.39 to 100 uM; type: functional, organism-based; settings: dose 0.39-100 µM
[11] = tested on: Acinetobacter baumannii; test: Antimicrobial activity against Acinetobacter baumannii ATCC19606 assessed as viability at 0.39 to 100 uM; type: functional, organism-based; settings: dose 0.39-100 µM
[12] = tested on: Pseudomonas aeruginosa; test: Antimicrobial activity against Pseudomonas aeruginosa PAO1 assessed as viability at 0.39 to 100 uM; type: functional, organism-based; settings: dose 0.39-100 µM
[13] = tested on: HepG2; test: Cytotoxicity against human HepG2 cells assessed as cell viability measured after 24 hrs by CCK-8 assay; type: functional, cell-based
[14] = tested on: A-375; test: Cytotoxicity against human A-375 cells assessed as cell viability measured after 24 hrs by CCK-8 assay; type: functional, cell-based
[15] = tested on: BV-2; test: Cytotoxicity against mouse BV-2 cells assessed as cell viability measured after 24 hrs by CCK-8 assay; type: functional, cell-based
[16] = tested on: HK-2; test: Cytotoxicity against human HK2 cells assessed as cell viability measured after 24 hrs by CCK-8 assay; type: functional, cell-based
[17] = target: T1, Aminopeptidase (Pseudomonas aeruginosa); test: Inhibition of aminopeptidase (PaAP) in wild type Pseudomonas aeruginosa assessed as decrease in fluorescent intensity using fluorescent probe Hcy-NEO-Leu at 50 uM measured after 3 hrs
[18] = target: T1, Aminopeptidase (Pseudomonas aeruginosa); test: Inhibition of aminopeptidase (PaAP) in Pseudomonas aeruginosa delta(PaAP) assessed as decrease in fluorescent intensity using fluorescent probe Hcy-NEO-Leu at 50 uM measured after 3 hrs
[19] = tested on: Pseudomonas aeruginosa; test: Reduction in aminopeptidase (PaAP) expression level in Pseudomonas aeruginosa PAO1 at 50 to 200 uM by ELISA relative to control; type: functional; settings: dose 50-200 µM
[20] = target: T1, Aminopeptidase (Pseudomonas aeruginosa); test: Inhibition of aminopeptidase (PaAP) in Pseudomonas aeruginosa PAO1 biofilm assessed as Hcy-NEO-Leu mediated fluorescence at 50 uM measured after 1 hr measured after 48 hrs by CLSM imaging based assay
[21] = tested on: Pseudomonas aeruginosa; test: Anti-biofilm activity against Pseudomonas aeruginosa PAO1 on nail (implant surface) using Hcy-NEO-Leu probe at 50 uM by fluorescence imaging analysis; type: functional, organism-based
[22] = tested on: Pseudomonas aeruginosa; test: Anti-biofilm activity against Pseudomonas aeruginosa PAO1 on surgical suture (implant surface) using Hcy-NEO-Leu probe at 50 uM by fluorescence imaging analysis; type: functional, organism-based
[23] = tested on: Pseudomonas aeruginosa; test: Anti-biofilm activity against Pseudomonas aeruginosa PAO1 on catheter (implant surface) using Hcy-NEO-Leu probe at 50 uM by fluorescence imaging analysis; type: functional, organism-based
[24] = tested on: Pseudomonas aeruginosa; test: Anti-biofilm activity against Pseudomonas aeruginosa PAO1 at 50 uM by crystal violet staining based optical microscopy relative to control; type: functional
[25] = tested on: Pseudomonas aeruginosa; test: Induction of antibiotic susceptibility of Pseudomonas aeruginosa PAO1 assessed as reduction in tobramycin resistance by measuring bio-film fluorescence image at 50 uM incubated for 2 days followed by treated with tobramycin for 24 hrs by Calcein-AM/PI dual staining based Confocal microscopy; type: functional, organism-based; settings: time 3.0 day
[26] = tested on: Pseudomonas aeruginosa; test: Anti-biofilm activity against Pseudomonas aeruginosa PAO1 biofilm exposed to RAW264.7 cells assessed as increase in bacterial uptake by macrophages at 50 uM measured after 12 hrs by LB plate assay; type: functional, organism-based
[27] = tested on: Pseudomonas aeruginosa; test: Anti-biofilm activity against Pseudomonas aeruginosa PAO1 deltaPaAP biofilm exposed to RAW264.7 cells assessed as increase in bacterial uptake by macrophages at 50 uM measured after 12 hrs by LB plate assay; type: functional, organism-based
[28] = tested on: Pseudomonas aeruginosa; test: In vivo anti-biofilm activity against pre colonized mature Pseudomonas aeruginosa PAO1 subcutaneously transplanted catheter in mouse model assessed as reduction in fluorescence signal using Hcy-NEO-Leu probe relative to control group; type: functional
[29] = tested on: Pseudomonas aeruginosa; test: In vivo anti-biofilm activity against pre colonized mature Pseudomonas aeruginosa PAO1 subcutaneously transplanted catheter in mouse model assessed as reduction in bacterial CFU using Hcy-NEO-Leu probe; type: functional, organism-based
[30] = target: T1, Aminopeptidase (Pseudomonas aeruginosa); test: Inhibition of aminopeptidase (PaAP) in Pseudomonas aeruginosa PAO1 biofilm assessed as Hcy-NEO-Leu mediated fluorescence at 1 mM measured after 1 hr measured after 48 hrs by CLSM imaging based assay

SMILES: CC1(C)C(/C=C/C2=C3Oc4cc(O)ccc4C=C3CCC2)=[N+](CCCCCC(=O)NC[C@H]2O[C@@H](O[C@@H]3[C@@H](O)[C@H](N)C[C@H](N)[C@H]3O[C@H]3O[C@H](CN)[C@@H](O)[C@H](O)[C@H]3N)[C@H](O)[C@@H]2O[C@H]2O[C@@H](CN)[C@@H](O)[C@H](O)[C@H]2N)c2ccccc21
viability at 24 h, 25 µM [1]: > 80% | viability at 24 h, 25 µM [2]: > 80% | viability at 24 h, 25 µM [3]: > 80% | viability at 24 h, 25 µM [4]: > 80% | Activity [5]: inactive

SMILES: O=C(O[C@H]1[C@H]2c3cc4c(cc3CN3CCC(=C[C@@H]1O)[C@H]23)OCO4)C1CCCCC1
inhibition [6]: Active

SMILES: CC(C)C[C@H](N)C(=O)Nc1ccc(COc2ccc3c(c2)OC2=C(/C=C/C4=[N+](CCCCCC(=O)NC[C@H]5O[C@@H](O[C@@H]6[C@@H](O)[C@H](N)C[C@H](N)[C@H]6O[C@H]6O[C@H](CN)[C@@H](O)[C@H](O)[C@H]6N)[C@H](O)[C@@H]5O[C@H]5O[C@@H](CN)[C@@H](O)[C@H](O)[C@H]5N)c5ccccc5C4(C)C)CCCC2=C3)cc1
viability at 24 h, 25 µM [1]: > 80% | viability at 24 h, 25 µM [2]: > 80% | viability at 24 h, 25 µM [3]: > 80% | viability at 24 h, 25 µM [4]: > 80% | Activity [5]: inactive

SMILES: O[C@H]1[C@H]2c3cc4c(cc3CN3CCC(=C[C@@H]1OC(=S)Nc1ccccc1)[C@H]23)OCO4
inhibition [6]: Active | IC50 [7]: 36.8 µM | Activity [8]: inactive | Activity [9]: inactive | Activity [10]: inactive | Activity [11]: inactive | Activity [12]: inactive | Activity [13]: inactive | Activity [14]: inactive | Activity [15]: inactive | Activity [16]: inactive | inhibition [17]: Active | inhibition [18]: inactive | Activity [19]: Active | inhibition [20]: Active | Activity [21]: Active | Activity [22]: Active | Activity [23]: Active | Activity [24]: <50% | Activity [25]: Active | Activity [26]: Active | Activity [27]: Active | fold change (FC) [28]: 2.65 | Activity [29]: Active

SMILES: CC(C)C[C@H](NC(=O)[C@@H](O)[C@H](N)Cc1ccccc1)C(=O)O [UBENIMEX]
IC50 [7]: 521 µM | inhibition [30]: 100%

SMILES: CC(C)(C)[Si](C)(C)OC1CCC(N2C(=S)O[C@H]3[C@H]4c5cc6c(cc5CN5CCC(=C[C@H]32)[C@H]45)OCO6)CC1 (some centres not stated)
inhibition [6]: Active

SMILES: O=C(COc1ccccc1)O[C@@H]1C(=O)C=C2CCN3Cc4cc5c(cc4[C@H]1[C@@H]23)OCO5
inhibition [6]: Active

SMILES: O=C(O)CCNC(=O)c1ccc(/N=N/c2ccc(O)c(C(=O)O)c2)cc1 [BALSALAZIDE]
IC50 [7]: 39.2 µM

SMILES: O=C(NC1CCCCC1)O[C@H]1[C@H]2c3cc4c(cc3CN3CCC(=C[C@@H]1O)[C@H]23)OCO4
inhibition [6]: Active

More lines, now with the values ahead:

inhibition [6]: Active
SMILES: O=C1O[C@H]2[C@H]3c4cc5c(cc4CN4CCC(=C[C@H]2N1c1ccc(Cl)cc1)[C@H]34)OCO5

inhibition [6]: Active
SMILES: O=C(Nc1ccc(Cl)cc1)O[C@H]1[C@H]2c3cc4c(cc3CN3CCC(=C[C@@H]1O)[C@H]23)OCO4

inhibition [6]: Active
SMILES: S=C1O[C@H]2[C@H]3c4cc5c(cc4CN4CCC(=C[C@H]2N1c1cccnc1)[C@H]34)OCO5

inhibition [6]: Active
SMILES: O=C1C=C2CCN3Cc4cc5c(cc4[C@H]([C@@H]1O)[C@@H]23)OCO5

inhibition [6]: Active
SMILES: O[C@H]1[C@H]2c3cc4c(cc3CN3CCC(=C[C@@H]1O)[C@H]23)OCO4

inhibition [6]: Active
SMILES: O=C(CSc1ccc(F)cc1)O[C@@H]1C(=O)C=C2CCN3Cc4cc5c(cc4[C@H]1[C@@H]23)OCO5
